Source: ChEMBL document CHEMBL1143224, “An asymmetric C8/C8'-tripyrrole-linked sequence-selective pyrrolo[2,1-c][1,4]benzodiazepine (PBD) dimer DNA interstrand cross-linking agent spanning 11 DNA base pairs” (2008)

How the values were obtained:
[1] = tested on: K562; experiment: Cytotoxicity against human K562 cells; type: functional
[2] = tested on: Escherichia coli; experiment: Induction of cross linking in DS pUC18 plasmid
[3] = Cytotoxicity against human NCI60 cells; type: functional

SMILES	GI50 [1]	XL50 [2]	GI50 [3]	LC50 [3]	TGI [3]
COc1cc2c(cc1OCCCNC(=O)c1cc(NC(=O)c3cc(NC(=O)c4cc(NC(=O)CCCOc5cc6c(cc5OC)C(=O)N5CCC[C@H]5C=N6)cn4C)cn3C)cn1C)N=C[C@@H]1CCCN1C2=O	37 nM	0.23 µM	14 nM	22.9 µM	490 nM
C=C1C[C@H]2C=Nc3cc(OCCCOc4cc5c(cc4OC)C(=O)N4CC(=C)C[C@H]4C=N5)c(OC)cc3C(=O)N2C1 [SJG-136]	8 nM	0.06 µM	7 nM		87 nM
